Compound | melting point [°C]
CN1CC(CCl)C(c2ccccc2)(c2ccccc2)C1=O (centres undefined) | 120 to 122
Cc1cc(-n2cnn(Cc3ccc(F)cc3)c2=O)sc1C(=O)NCc1ncco1 | 163 to 165
N#Cc1ccc(-c2ccc(-c3ccc(C#N)o3)cc2)cc1 | 216 to 218
O=C(O)Cc1ccc2c(c1)C(=O)c1ccccc1CO2 | 126 to 128
COc1ccc(C2(C#Cc3cccc([N+](=O)[O-])c3)CCCC(=O)C2)cc1OC1CCCC1 (centres undefined) | 46 to 48
CC(=O)N1CC=C(C2=C(C#N)C(c3cccc4nonc34)c3c[nH]nc3N2)CC1 (centres undefined) | 237
COc1ccc(CCNC=C2C(=O)Nc3cc(OC)c(OC)cc32)cc1OC | 164 to 166
CCOC(=O)c1cccc(-c2coc3c(C)c(O)ccc3c2=O)c1 | 222
O=c1[nH]c(=O)n(C2CC(F)C(CO)O2)cc1CO (centres undefined) | 184
CC12CCCC1C1=CCc3cc(O)ccc3C1CC2 (centres undefined) | 130 to 134
c1ccc2sc(=NCCN3CCOCC3)sc2c1 | 75 to 76
COC(=O)c1cccc2nc(N3CCCCC3)n(Cc3ccc(-c4ccccc4-c4nnn[nH]4)cc3)c12 | 146 to 150
CCOC(=O)N1CCc2nc3ccccc3c(C)c2CC1 | 125
CCC(C)(C)O[C@H]1COC[C@H](NC(=O)c2nccc(OC)c2O)C(=O)O[C@@H](C)[C@@H]1OCC(C)C | 138 to 140
N#Cc1cc2c(c(C(=O)O)c1)NCCS2 | 241 to 242
OCCCCN1CCC(C(O)(c2ccc(F)cc2)c2ccc(F)cc2)CC1 | 130 to 131
CC(=O)NC1Cc2ccc(C(=O)CCl)cc2C1 (centres undefined) | 173 to 174
COc1cc2cc3c(=O)c(C#N)c[nH]c3nc2cc1OC | > 300
O=C(O)c1ccccc1Nc1ccc(I)cc1 | 205 to 206
O=C(O)CS(=O)(=O)c1cccc(C(=O)C2CCC3(CCNCC3)CC2)c1 | 134 to 138
CC1Oc2ccc(Cn3ccnc3)cc2NC1N (centres undefined) | 152 to 156
CN1C(=O)CC[C@]2(C)c3ccc(SCc4ccccc4)cc3CC[C@@H]12 | 137 to 138
c1cc(CCCn2ccnc2)cc(OCc2coc(-c3cccs3)n2)c1 | 112 to 113
CCC(C)Nc1ccc([N+](=O)[O-])cc1[N+](=O)[O-] (centres undefined) | 53 to 55

Compound | melting point [°C]
CCC(=O)C(=Cc1cc(O)c(O)c([N+](=O)[O-])c1)C(=O)CC | 133 to 135
CN(c1cccc2cc(-c3ncc(CC(=O)N4CCOCC4)s3)[nH]c12)S(=O)(=O)c1cccs1 | 199 to 200
CC1(C)OC(=O)C(=Cc2ccc(I)s2)C1=O | 182 to 184
OCCCN1CCN(c2ccccc2)CC1 | 72 to 73
O=Cc1ccc(OCCNc2nc3ccccc3o2)cc1 | 103 to 106
Cc1ccccc1-c1cc(=O)c(C)c(-c2ccccc2)n1-c1ccccc1 | 188 to 191
CCCc1ccnc(C(N)=O)c1N | 139 to 141
CCn1c(CO)nc(C(C)C)c1Sc1cccc(Cl)c1 | 99 to 100
CC(C)(C)OC(=O)NC[C@H]1C[C@H]1CON1C(=O)c2ccccc2C1=O (relative stereo) | 96 to 97
C=C(CC(=O)Nc1cc(Cl)cc(Cl)c1)C(=O)O | 185
O=c1ccn(-c2cccc(C(F)(F)F)c2)nc1-c1ccn[nH]1 | 192 to 194
O=C(O)CCN1C(=O)c2cccc([N+](=O)[O-])c2C1=O | 146 to 148
CC(=O)c1ccc(Nc2cccc(-c3cnc(N)nc3)c2)c(N)c1 | 228 to 230
Cc1nc(-c2ccc(C(F)(F)F)cc2)oc1COc1ccc(OCC(=O)O)cc1 | 136 to 138
CSc1cc2cccc(NS(=O)(=O)c3cccs3)c2[nH]1 | 102 to 103
O=C(NO)C(CCN1C(=O)c2ccccc2C1=O)NS(=O)(=O)c1ccc(-c2ccc(Cl)cc2)cc1 (centres undefined) | 184 to 186
Cc1cc(CNC(=O)c2ccnc(-n3cnn(Cc4ccc(F)c(F)c4)c3=O)c2)no1 | 160 to 161
CNC(SC)=C(C#N)C#N | 119 to 120
Cc1nc(-c2ccc(Cl)cc2)[nH]c1C(=O)N[C@H](C)[C@](O)(Cn1cncn1)c1ccc(F)cc1F | 165 to 166
CC(C)(C)OC(=O)c1ccc(C(=O)NS(=O)(=O)c2ccccc2)cc1 | 141 to 143
COc1ccc(/C=C/c2nc3ccccc3c(=O)o2)cc1OC(C)=O | 187 to 190
Cc1ccc(-c2cc(CN)c(=O)n(CC(C)C)n2)cc1 | 74.9 to 77.9
Cc1[nH]c(=O)cc2c1CC(c1ccccn1)CC2 (centres undefined) | 260
C#CCOc1ccc(CCNC(=O)C(=NOC)c2ccc(Cl)c(Cl)c2)cc1OC | 107 to 108

Compound | melting point [°C]
CC(=O)Nc1cccc(-c2nc(=O)c3ccccc3s2)c1 | 241 to 242
Oc1ccc(-c2ccc(O)c(Br)c2)cc1Br | 118 to 121
CS(=O)(=O)NC(=O)NCCCCC1CCSS1 (centres undefined) | 125 to 127
O=C(O)c1ccc(-c2nc(-c3ccc(F)cc3)c(-c3ccncc3)[nH]2)cc1 | 289 to 290
CCCC1=NN(c2ccc(C(N)=O)cc2)C(=O)C1=CNc1ccccc1CC | 170
CCOc1c(C(=O)OCC(C)(C)C(=O)C(C)(C)C)oc2ccc(OC)cc12 | 105 to 106
CCNc1cccc2c(S(=O)(=O)Nc3ccc(Cl)nn3)cccc12 | 166 to 168
CCOC(=O)c1c(N)sc(-c2ccc(OC)cc2)c1C | 79 to 80
O=C1NC(NCC2CC2)=N/C1=C\c1c[nH]c2ncc(N3CCOCC3)cc12 | 331
CC(C)c1[nH]n(-c2c(Cl)cc(Cl)cc2Cl)c2nc(Cc3ccc(NC(=O)OCCCN(C)C)cc3)nc(=O)c1-2 | 200 to 202
COc1cc(C=O)c(F)cc1Cl | 120 to 122
CCOC(=O)c1ccc(NC(=N)c2ccc(OC)cc2)cc1 | 128 to 132
Cc1noc(-c2cc3c4ccccc4n(CCCCl)c3cn2)n1 | 180 to 185
CSCC(=O)[C@H](COCc1ccccc1)NC(=O)[C@H](CC(C)C)NC(=O)OCc1ccccc1 | 58 to 70
CC(C)(C)C(=O)N[Si](C)(C)C | 101 to 106
CCCCn1c(=O)c2c(cnn2S(=O)(=O)CC)n(CCCC)c1=O | 119 to 121
CCOC(=O)Cc1ccc(NC(=O)C(COc2ccc(Cl)cc2)NS(=O)(=O)c2ccc(I)cc2)cc1 (racemic) | 162 to 163
CC(C)(C)c1ccc2sc3cc(-c4nnn[nH]4)ccc3c(=O)c2c1 | 277
CCCC1=C(C)C(=O)c2oc(Cc3ccc(OC)cc3)c(C)c2C1=O | 114
OCc1csc(Cl)c1Cl | 63 to 65
O=C(NCc1ccc(F)cc1)c1ccnc(N2CCN(Cc3ccc(F)c(F)c3)C2=O)c1 | 165 to 167
Cc1cc2ncnn2nc1OCC(C)(C)CCS(N)(=O)=O | 214 to 215
O=c1n(CCCCl)nc2n1-c1ccccc1OC2 | 77 to 78

Other lines, results leading:

melting point [°C] | Compound
160 | CCCCCC12CCC(C(=O)O)(CC1)CC2
223 to 224 | CC(C)Nc1nc2c(Cl)c(Cl)c(Cl)cc2n1[C@H]1O[C@@H](CO)[C@H](O)[C@@H]1O
150 to 151 | Nc1nc(N)c2cc(Cc3ccc(Cl)c(Cl)c3)ccc2n1
169 to 170 | Cc1ccc(C2=Nc3ccccc3N=C(N3CCN(C)CC3)C2)cc1
130 to 133 | COc1ccc2c3c(ccc2c1)-c1ccccc1C3c1ccc(OCCN2CCCCC2)cc1 (centres undefined)
177 to 179 | CCCCc1nc2c(N)nc3ccc(OCc4ccccc4)cc3c2n1CCCCNC(=O)N1CCOCC1
189 to 191 | NC(=O)CNC(=S)Nc1c(Cl)cccc1Cl
90 to 91 | O=C1CCC(CCC(=O)OCc2cccc(Cl)c2)N1 (centres undefined)
95 to 98 | CCC(O)c1ccccc1CS(=O)(=O)NC(=O)Nc1nc(OC)cc(OC)n1 (centres undefined)
144 to 146 | COc1cccc(C2(CC(=O)O)CNC(=O)C2)c1 (centres undefined)
248 to 250 | O=[N+]([O-])c1ccc(Oc2ccc(C3(c4ccc(Oc5ccc([N+](=O)[O-])c(O)c5)cc4)C4CC5CC(C4)CC3C5)cc2)cc1O
125 to 127 | O=C1OC(c2ccccc2)=NC1=Cc1cc(Cl)ccc1Sc1cccs1
204 to 206 | O=C(c1[nH]c2ccc(F)cc2c1Sc1ccccn1)N1CCCC1
86 to 88 | Cn1nc(C(F)(F)F)cc1Oc1cc(OC(F)F)cnn1
36 to 37 | CCOC(=O)CCc1ccc(C)nc1
174 to 176 | Cc1cc(=O)oc2cc(NCc3ccccc3)ccc12
207 to 209 | CC(C)C1=CC(=O)C2=C(CCC3C(C)(C(=O)O)CCCC23C)C1=O (centres undefined)

melting point [°C] | Compound
152 to 154 | S=CN1CCC(C(c2ccccc2)c2ccccc2)CC1
73 to 75 | CCC1Cc2c(C)c(O)c(C)c(C)c2O1 (racemic)
133 to 134 | CCCCCCCCSc1nc(-c2ccccc2)c(-c2ccccc2)[nH]1
147 | O=C(COc1ccccc1)N[C@@H](Cc1ccc([N+](=O)[O-])cc1)C(=O)O
161 to 162 | Cc1cc(NC(=O)NN(c2ccccc2)c2cccc(C#N)c2)ccc1N1CCCCC1=O
153 to 155 | Cc1nn(C)c(C(N)=O)c1[N+](=O)[O-]
196 to 197 | CCOC(=O)c1ncc2[nH]c3cccc(OC4CCC4)c3c2c1COC
83 to 94 | COc1cc2c(cc1Nc1ncc(Cl)c(Nc3ccccc3S(=O)(=O)C(C)C)n1)CCN(CC(=O)N(C)C)CC2
195 to 197 | O=C(O)Cc1ccc(OCc2ccc(F)cc2C(=O)O)cc1
117 to 120 | CC(=O)SCCNC(=O)[C@H](CS)NC(=O)C(C)C
199 to 200 | NC(=O)N1C(=O)C(=C(OCC(=O)C2COCOC2)c2cccs2)c2cc(F)c(Cl)cc21
276 to 282 | CNS(=O)(=O)c1ccccc1Nc1nc(Nc2ccc3c(c2)CCCC(=O)N3)ncc1Cl
178 to 180 | CC(CSC#N)n1nnc2cc3c(=O)n(C4CC4)nnc3cc2c1=O (centres undefined)
115 to 116 | CS(=O)(=O)On1nnc2ccc([N+](=O)[O-])cc21
188 to 190 | CCCCc1nc2c(N)nc3ccc(O)cc3c2n1CCCCNC(=O)c1ccccc1
159 to 162 | CNc1nc(N)nc(NC2CC2)n1

Reference: a melting point compilation (Tetko et al.; mined from patent text by program, amines drawn as free bases though some values may be those of a salt)
